According to ChEMBL document CHEMBL4765351, “Photoeradication of bacteria with porphycenes: Substituent effects on the efficiency” (Eur J Med Chem, 2020):
Calls of active or inactive are those of the source. The calls are words filed in the database; no cut-off is given here.

Key:
[1] = Induction of singlet oxygen generation in pluronic solution in deuterated water assessed as singlet oxygen quantum yield irradiated with 635 nanometer LED light at 300 mW by spectrometric method; type: functional
[2] = Absorption property in pluronic/PBS solution assessed as diode array corresponding wavelength of photodynamic inactivation by measuring electronic absorption spectra by spectrophotometry; type: physicochemical; settings: buffer
[3] = Induction of singlet oxygen generation in toluene solution assessed as singlet oxygen quantum yield irradiated with 369 nanometer LED light at 300 mW by spectrometric method; type: functional
[4] = system: Enterococcus faecalis; experiment: Photodynamic antibacterial activity against Enterococcus faecalis 29212 assessed as bacterial eradication at 7 uM preincubated for 30 mins in dark condition followed by 0.6 J/cm2.min LED light irradiation for 50 mins; type: functional, ATCC 29212; settings: time 80 min, 1.333 h
[5] = system: HeLa; experiment: Photodynamic anticancer activity against human HeLa cells; type: functional, cell-based
[6] = system: Enterococcus faecalis; experiment: Photodynamic antibacterial activity against Enterococcus faecalis 29212 assessed as bacterial eradication at 7 uM preincubated for 30 mins in dark condition followed by 30 J/cm2 LED light irradiation; type: functional, ATCC 29212; settings: 0.5 h
[7] = Induction of hydroxy radical generation in pluronic solution irradiated with 635 nanometer LED light at 6 mW by HPF fluorescence method
[8] = Induction of […] generation in pluronic solution irradiated with 369 nanometer LED light at 6 mW by HPF fluorescence method
[9] = system: Enterococcus faecalis; experiment: Photodynamic antibacterial activity against Enterococcus faecalis 29212 assessed as bacterial eradication by measuring log reduction at 7 uM preincubated for 30 mins in dark condition followed by 0.6 J/cm2.min LED light irradiation for 120 mins; type: functional, ATCC 29212
[10] = system: Enterococcus faecalis; experiment: Photodynamic antibacterial activity against Enterococcus faecalis 29212 assessed as bacterial eradication at 7 uM preincubated for 30 mins in dark condition followed by 72 J/cm2 LED light irradiation; type: functional

Structure (SMILES): C1=Cc2nc1ccc1ccc([nH]1)c1nc(ccc3ccc2[nH]3)C=C1
- Activity [1]: 0.28
- Activity [2]: Active
- Activity [3]: 0.3
- Activity [4]: 100%
- Activity [5]: Active
- Activity [6]: 100%
- Activity [7]: Active
- Activity [8]: Active

Structure (SMILES): CC(C)(C)c1cc2[nH]c1ccc1nc(c3ccc(ccc4nc2C=C4)[nH]3)C=C1
- Activity [1]: 0.23
- Activity [2]: Active
- Activity [3]: 0.32
- Activity ([9]; time 150 min, 2.5 h): 3
- Activity ([10]; ATCC 29212): inactive
- Activity [7]: Active
- Activity [8]: Active

Structure (SMILES): CC(C)(C)C1=Cc2nc1ccc1[nH]c(cc1C(C)(C)C)c1nc(ccc3[nH]c2cc3C(C)(C)C)C(C(C)(C)C)=C1
- Activity [1]: 0.21
- Activity [2]: Active
- Activity [3]: 0.38
- Activity ([9]; ATCC 29212, time 150.0 min): inactive
- Activity ([10]; ATCC 29212): inactive
- Activity [5]: inactive
- Activity [7]: Active
- Activity [8]: Active

Structure (SMILES): COCCC1=Cc2nc1ccc1[nH]c(cc1CCOC)c1nc(ccc3[nH]c2cc3CCOC)C(CCOC)=C1
- Activity [1]: 0.23
- Activity [2]: Active
- Activity [3]: 0.32
- Activity ([9]; time 150 min, 2.5 h): 6
- Activity ([10]; 0.5 h): 100%
- Activity [5]: Active
- Activity [7]: Active
- Activity [8]: Active

Structure (SMILES): CC(C)(C)C1=Cc2nc1ccc1ccc([nH]1)c1nc(ccc3[nH]c2cc3C(C)(C)C)C=C1
- Activity [1]: 0.22
- Activity [2]: Active
- Activity [3]: 0.36
- Activity ([9]; ATCC 29212, time 150.0 min): inactive
- Activity ([10]; ATCC 29212): inactive
- Activity [7]: Active
- Activity [8]: Active
